Measurements reported in patent publication US9603888B2, “Pea protein peptides with anti Helicobacter pylori activity” (priority 2010, dated 2017).
“And” between values parts separate entries of the source, which are not always exact repeats. Equal entries are not always repeated. Where no end group is shown, it is not given here.

Experiments:
[1] = tested on: FITC-labelled H. pylori on AGS cells; assay: Flow cytometric anti-adhesion assay of FITC-labelled H. pylori on AGS cells; settings: for reduction of adhesion: fragments of S3
Method: H. pylori was incubated for 48 h under microaerophilic conditions at 37° C. on Tryptic Soy Agar (Becton Dickinson, Germany), supplemented with 5% defibrinated sheep blood (Oxoid, UK).
Human gastric epithelial cells (AGS cells) were grown in RPMI 1640 with L-glutamine (PAA, Germany), supplemented with 10% FCS, on tissue culture flasks (75 cm^2, Sarstedt, USA) and 6-well-plates (Sarstedt, USA) in 5% CO2.
Agar grown H. pylori were harvested and resuspended in sterile carbonate buffer (pH 9.0) to a density of about 1.0×10^8 bacteria per ml. 10 μl of a FITC solution (1% in DMSO) were added and incubated with the bacteria for 45 min. Fluorescent labelling was terminated by pelleting the bacteria (3.150×g, 5 min). Bacteria were washed twice in PBS to remove excess FITC and were gently resuspended for further use.

[2] = tested on: FITC-labelled H. pylori on human gastric mucosa; assay: In situ adhesion assay on histological sections of human gastric mucosa; format: cell-based; settings: 300 μM
Method: In situ experiments with histological sections of human gastric mucosa and FITC-labelled H. pylori were performed according to Lengsfeld et al, 2004, J. Agricul. Food Chem: 52, 1495-1503, and evaluated by fluorescent microscopy. The adhesion of FITC-labelled H. pylori to the epithelium was assessed by fluorescent microscopy and imaging. The quantity of adhering bacteria to the epithelial surface was evaluated under double blinded conditions. Maximal adhesion was expressed as total 100% adhesion. The fluorescence area intensity was calculated by ImageJ® software (Olympus, Germany), standardizing the fluorescent area of the negative control as 100%.

OMP BabA = assay: Dot blot glycoconjugate assay, BabA ligands (Lewis b, H type I); format: binding; settings: pre-treatment of H. pylori
[3] = tested on: H. pylori outer membrane proteins (OMP); assay: Dot blot glycoconjugate assay, adhesins in general; format: binding; settings: pre-treatment of H. pylori
[4] = 75 μM, untreated control = 100%
[5] = 150 μM, untreated control = 100%

| Compound | rel. adhesion in [%] (±SEM; n = 3) [1, 4] | rel. adhesion in [%] (±SEM; n = 3) [1, 5] | further results |
| --- | --- | --- | --- |
| CC(=O)N[C@H]1[C@H]([C@H](O)[C@H](O)CO)O[C@@](O[C@H]2[C@@H](O)[C@@H](CO)O[C@@H](O[C@H]3[C@H](O)[C@@H](O)C(O)O[C@@H]3CO)[C@@H]2O)(C(=O)O)C[C@@H]1O (stereo partly shown) [positive control, 3′sialyllactose, reference compound] | – | – | rel. adhesion in [%] (±SEM; n = 3) ([1]; positive control 3′sialyllactose 15 mM): 70 ± 5% |
| AFNVNR [S3B] | 97 ± 4% | 104 ± 1% | – |
| Asp-Ala-Phe [S3H] | 104 ± 6% | 105 ± 1% | antiadhesive activity against H. pylori (in words) [1]: inactive |
| Asp-Phe-Leu-Glu-Asp (DFLED) [S3A] | 102 ± 3% | 108 ± 6% | – |
| DAFNVNR [S3D] | 89 ± 4% | 89 ± 3% | reduction of adhesion [1]: about 10% |
| DFLEDAF [S3F] | 85 ± 3% | 90 ± 5% | reduction of adhesion [1]: about 10% |
| DFLEDAFNV [S3E] | 91 ± 4% | 91 ± 4% | reduction of adhesion [1]: about 10% |
| DFLEDAFNVNR [S3] | 81% and 81 ± 3% | 83% and 83 ± 6% | inhibition of adhesion in situ [2]: about 40%; bacterial interaction with Lewis b-HSA conjugate (OMP BabA): inhibition; antiadhesive activity against H. pylori (in words) [1]: inhibit adhesion; influence on other adhesins (other than BabA / Lewis b-HSA) [3]: not significantly influenced |
| ELAFPGSAQEVDR [S5] | 94 ± 2% | 85 ± 2% | bacterial interaction with Lewis b-HSA conjugate (OMP BabA): inhibition; antiadhesive activity against H. pylori (in words) [1]: inhibit adhesion; inhibition of adhesion ([1]; 75 μmol): 6%; inhibition of adhesion ([1]; 150 μmol): 17%; influence on other adhesins (other than BabA / Lewis b-HSA) [3]: not significantly influenced |
| GDFELVGQR [S6] | 94 ± 3% | 97 ± 2% | – |
| LDALEPDNRIESEGGLIETWNPNNK [S1] | 95 ± 10% | 104 ± 7% | – |
| LEDAFNV [S3G] | 93 ± 2% | 94 ± 3% | reduction of adhesion [1]: about 10% |
| LEDAFNVNR [S3C] | 95 ± 5% | 100 ± 4% | – |
| LNIGPSSSPDIYNPEAGR [S2] | 93 ± 8% | 94 ± 6% | – |
| WEREEDEEQVDEEWR [S4] | 98 ± 2% | 107 ± 2% | – |
